Values quoted from earlier work as cited in patent publication US20050042712A1, “Methods, compositions and instruments to predict antimicrobial or preservative activity” (ADVANCED MEDICAL OPTICS, INC., priority 2003, published 2005).
Read-outs that look alike come from different tables or passages of the source.

pKa (carboxyphenyl group): 2.7
pKa (phenolate anion): 3.6
solubility in water (water): freely soluble in water
Compound: O=C1OC2(c3ccccc31)c1cc(Br)c(O)c(Br)c1Oc1c2cc(Br)c(O)c1Br.[Na].[Na] [Eosin Y, 2′,4′,5′,7′-Tetrabromo-3′,6′-dihydroxyspiro(isobenzofuran-1(3H),9′-(9H)xanthen)-3-one disodium salt]
